Measurements from ChEMBL document CHEMBL1255248, “Fitness of Streptococcus pneumoniae fluoroquinolone-resistant strains with topoisomerase IV recombinant genes” (2008).
≈ marks a conversion by molar mass, not a printed value.

How the values were obtained:
[1] = test system: Streptococcus pneumoniae; experiment: Antimicrobial activity against ciprofloxacin-resistant Streptococcus pneumoniae T4 harboring gyrA mutant gene by agar dilution method
[2] = test system: Streptococcus pneumoniae; experiment: Antimicrobial activity against ciprofloxacin-resistant Streptococcus pneumoniae T7 harboring gyrA mutant gene by agar dilution method
[3] = test system: Streptococcus pneumoniae; experiment: Antimicrobial activity against ciprofloxacin-resistant Streptococcus pneumoniae T21 harboring parC mutant gene by agar dilution method
[4] = test system: Streptococcus pneumoniae; experiment: Antimicrobial activity against ciprofloxacin-resistant Streptococcus pneumoniae T2 harboring gyrA mutant gene by agar dilution method
[5] = test system: Streptococcus pneumoniae; experiment: Antimicrobial activity against ciprofloxacin-resistant Streptococcus pneumoniae T13 harboring gyrA mutant gene by agar dilution method
[6] = test system: Streptococcus pneumoniae; experiment: Antimicrobial activity against ciprofloxacin-resistant Streptococcus pneumoniae T9 harboring gyrA mutant gene by agar dilution method
[7] = test system: Streptococcus pneumoniae; experiment: Antimicrobial activity against ciprofloxacin-resistant Streptococcus pneumoniae T26 harboring parC mutant gene by agar dilution method
[8] = test system: Streptococcus pneumoniae; experiment: Antimicrobial activity against ciprofloxacin-resistant Streptococcus pneumoniae T23 harboring gyrA mutant gene by agar dilution method
[9] = test system: Streptococcus pneumoniae; experiment: Antimicrobial activity against ciprofloxacin-resistant Streptococcus pneumoniae T8 harboring gyrA mutant gene by agar dilution method
[10] = test system: Streptococcus pneumoniae; experiment: Antimicrobial activity against ciprofloxacin-resistant Streptococcus pneumoniae T24 harboring gyrA mutant gene by agar dilution method
[11] = test system: Streptococcus pneumoniae; experiment: Antimicrobial activity against ciprofloxacin-resistant Streptococcus pneumoniae T12 harboring gyrA mutant gene by agar dilution method
[12] = test system: Streptococcus pneumoniae; experiment: Antimicrobial activity against ciprofloxacin-resistant Streptococcus pneumoniae T28 harboring gyrA mutant gene by agar dilution method
[13] = test system: Streptococcus pneumoniae; experiment: Antimicrobial activity against ciprofloxacin-resistant Streptococcus pneumoniae T25 harboring gyrA mutant gene by agar dilution method
[14] = test system: Streptococcus pneumoniae; experiment: Antimicrobial activity against ciprofloxacin-resistant Streptococcus pneumoniae T19 harboring gyrA mutant gene by agar dilution method
[15] = test system: Streptococcus pneumoniae; experiment: Antimicrobial activity against ciprofloxacin-resistant Streptococcus pneumoniae T6 harboring parC mutant gene by agar dilution method
[16] = test system: Streptococcus pneumoniae; experiment: Antimicrobial activity against ciprofloxacin-resistant Streptococcus pneumoniae T29 harboring gyrA mutant gene by agar dilution method
[17] = test system: Streptococcus pneumoniae; experiment: Antimicrobial activity against ciprofloxacin-resistant Streptococcus pneumoniae T30 harboring gyrA mutant gene by agar dilution method
[18] = test system: Streptococcus pneumoniae; experiment: Antimicrobial activity against ciprofloxacin-resistant Streptococcus pneumoniae T18 harboring gyrA mutant gene by agar dilution method
[19] = test system: Streptococcus pneumoniae; experiment: Antimicrobial activity against ciprofloxacin-resistant Streptococcus pneumoniae T1 harboring parC mutant gene by agar dilution method
[20] = test system: Streptococcus pneumoniae; experiment: Antimicrobial activity against ciprofloxacin-resistant Streptococcus pneumoniae T20 harboring gyrA mutant gene by agar dilution method
[21] = test system: Streptococcus pneumoniae; experiment: Antimicrobial activity against ciprofloxacin-resistant Streptococcus pneumoniae T3 harboring gyrA mutant gene by agar dilution method
[22] = test system: Streptococcus pneumoniae; experiment: Antimicrobial activity against ciprofloxacin-resistant Streptococcus pneumoniae T16 harboring parC mutant gene by agar dilution method
[23] = test system: Streptococcus pneumoniae; experiment: Antimicrobial activity against ciprofloxacin-resistant Streptococcus pneumoniae T11 harboring parE-ant-parC mutant gene by agar dilution method
[24] = test system: Streptococcus pneumoniae; experiment: Antimicrobial activity against ciprofloxacin-resistant Streptococcus pneumoniae T14 harboring gyrA mutant gene by agar dilution method

Structure (SMILES): O=C(O)c1cn(C2CC2)c2cc(N3CCNCC3)c(F)cc2c1=O [CIPROFLOXACIN]
- MIC [1]: 32 µg/mL (≈ 96.6 µM)
- MIC [2]: 32 µg/mL (≈ 96.6 µM)
- MIC [3]: 2 µg/mL (≈ 6.04 µM)
- MIC [4]: 32 µg/mL (≈ 96.6 µM)
- MIC [5]: 32 µg/mL (≈ 96.6 µM)
- MIC [6]: 32 µg/mL (≈ 96.6 µM)
- MIC [7]: 4 µg/mL (≈ 12.1 µM)
- MIC [8]: 16 µg/mL (≈ 48.3 µM)
- MIC [9]: 32 µg/mL (≈ 96.6 µM)
- MIC [10]: 16 µg/mL (≈ 48.3 µM)
- MIC [11]: 32 µg/mL (≈ 96.6 µM)
- MIC [12]: 32 µg/mL (≈ 96.6 µM)
- MIC [13]: 16 µg/mL (≈ 48.3 µM)
- MIC [14]: 32 µg/mL (≈ 96.6 µM)
- MIC [15]: 2 µg/mL (≈ 6.04 µM)
- MIC [16]: 32 µg/mL (≈ 96.6 µM)
- MIC [17]: 32 µg/mL (≈ 96.6 µM)
- MIC [18]: 64 µg/mL (≈ 193 µM)
- MIC [19]: 4 µg/mL (≈ 12.1 µM)
- MIC [20]: 32 µg/mL (≈ 96.6 µM)
- MIC [21]: 32 µg/mL (≈ 96.6 µM)
- MIC [22]: 2 µg/mL (≈ 6.04 µM)
- MIC [23]: 2 µg/mL (≈ 6.04 µM)
- MIC [24]: 32 µg/mL (≈ 96.6 µM)
